In US20110112100A1, “Hepatitis C Virus Inhibitors” (priority 2009, published 2011) one finds IC50 data, which are given here for 14 compounds.

For one assay, the system named is 1a-H77 replicon cells. In words: HCV 1a replicon inhibitory activity (Renilla luciferase). It counts as cell-based, hepatitis C virus. The following applies: read-out: IC50 value (95% Confidence Intervals) pM Replicon 1A assay. The procedure, abridged: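 Replicon cells in DMEM + 10% FCS incubated 48 hours at 37° C., 5% CO2 with 1-in-3 serial dilutions of compound prepared in DMSO. Replication read as Renilla luciferase luminescence after lysis. EC50 taken from log concentration-response curves.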

For another assay, the system named is 1b (con1) replicon cells. In words: HCV 1b replicon inhibitory activity (luciferase, Britelite Plus). The following applies: read-out: IC50 value (95% Confidence Intervals) pM Replicon 1B assay. It counts as cell-based, hepatitis C virus. The procedure, abridged: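 1b (con1) luciferase replicon cells in DMEM + 10% FCS were exposed to 1-in-3 DMSO compound dilutions for 48 h at 37° C, 5% CO2. Luminescence was read 1-15 min after Britelite Plus addition; EC50 came from log concentration-response curves.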

[1] abbreviates: Hepatitis C virus, geometric mean, 95% confidence intervals in parentheses, 48 hours, medium with 10% FCS.
The mark [2] stands for this setting: geometric mean, 95% confidence intervals in parentheses, 48 hours, medium with 10% FCS.

Counter-ions that a name gives are not always drawn. Like-named read-outs stand apart in the source and are kept apart here.

In the case of `COC(=O)N[C@H](C(=O)N1CCC[C@H]1c1nc(-c2ccc(-c3nc4ccc(-c5c[nH]c([C@@H]6CCCN6C(=O)[C@@H](NC(=O)OC)C(C)C)n5)cc4nc3O)cc2)c[nH]1)C(C)C` [Example 18, Methyl {(2S)-1-[(2S)-2-{4-[4-(3-hydroxy-6-{2-[(2S)-1-{(2S)-2-[(methoxycarbonyl)amino]-3-methylbutanoyl}pyrrolidin-2-yl]-1H-imidazol-4-yl}quinoxalin-2-yl)phenyl]-1H-imidazol-2-yl}pyrrolidin-1-yl]-3-methyl-1-oxobutan-2-yl}carbamate], the values for the IC50 in the assay on 1a-H77 replicon cells (setting [1]) and in the assay with 1b (con1) replicon cells (setting [1]) were 536 pM and 35.8 pM, respectively.

With `COC(=O)N[C@H](C(=O)N1CCC[C@H]1c1ncc(-c2ccc(-c3cnc4cc(-c5cnc([C@@H]6CCCN6C(=O)[C@@H](NC(=O)OC)C(C)C)[nH]5)cnc4n3)cc2)[nH]1)C(C)C` [Example 14, Methyl {(2S)-1-[(2S)-2-{5-[3-(4-{2-[(2S)-1-{(2S)-2-[(methoxycarbonyl)amino]-3-methyl-butanoyl}pyrrolidin-2-yl]-1H-imidazol-5-yl}phenyl)pyrido[2,3-b]pyrazin-7-yl]-1H-imidazol-2-yl}pyrrolidin-1-yl]-3-methyl-1-oxobutan-2-yl}carbamate], the results for the IC50 with 1a-H77 replicon cells (setting [1]) and in the assay with 1b (con1) replicon cells (setting [1]) were 882 pM and 189 pM, respectively.

`COC(=O)N[C@H](C(=O)N1CCC[C@H]1c1nc(-c2ccc(-c3cnc4cc(-c5cnc([C@@H]6CCCN6C(=O)C6(NC(=O)OC)CCC6)[nH]5)ccc4n3)cc2)c[nH]1)C(C)C` [Example 50, Methyl {(2S)-1-[(2S)-2-{4-[4-(6-{2-[(2S)-1-({1-[(methoxycarbonyl)amino]cyclobutyl}carbonyl)pyrrolidin-2-yl]-1H-imidazol-5-yl}quinoxalin-2-yl)phenyl]-1H-imidazol-2-yl}pyrrolidin-1-yl]-3-methyl-1-oxobutan-2-yl}carbamate trifluoroacetic acid salt]: the half-maximal inhibitory concentration (IC50) with 1a-H77 replicon cells (Hepatitis C virus, 48 h) was found to be 356 pM; in the assay with 1b (con1) replicon cells (Hepatitis C virus, 48 h), 77.2 pM.

In the case of `COC(=O)N[C@H](C(=O)N1CCC[C@H]1c1nc(-c2ccc(-c3cnc4cc(-c5cnc([C@@H]6CCCN6C(=O)[C@H](CCC(N)=O)NC(C)=O)[nH]5)ccc4n3)cc2)c[nH]1)C(C)C` [Example 34, Methyl {(2S)-1-[(2S)-2-{4-[4-(6-[2-[(2S)-1-(N^2-acetyl-L-glutaminyl)pyrrolidin-2-yl]-1H-imidazol-5-yl}quinoxalin-2-yl)phenyl]-1H-imidazol-2-yl}pyrrolidin-1-yl]-3-methyl-1-oxobutan-2-yl}carbamate trifluoroacetic acid salt], the half-inhibitory concentration (IC50) in the assay with 1a-H77 replicon cells (Hepatitis C virus, 48 h) was 5930 pM; in the assay with 1b (con1) replicon cells (Hepatitis C virus, 48 h), 1430 pM.

For `COC(=O)N[C@H](C(=O)N1CCC[C@H]1c1ncc(-c2ccc3cc(-c4cnc(-c5cnc([C@@H]6CCCN6C(=O)[C@@H](NC(=O)OC)C(C)C)[nH]5)cn4)ccc3c2)[nH]1)C(C)C` [Example 24, Methyl {(2S)-1-[(2S)-2-{5-[6-(5-{2-[(2S)-1-{(2S)-2-[(methoxycarbonyl)amino]-3-methylbutanoyl}pyrrolidin-2-yl]-1H-imidazol-4-yl}pyrazin-2-yl)naphthalen-2-yl]-1H-imidazol-2-yl}pyrrolidin-1-yl]-3-methyl-1-oxobutan-2-yl}carbamate], the IC50 in the assay on 1a-H77 replicon cells (setting [1]) is 19900 pM; in the assay on 1b (con1) replicon cells (setting [1]) it was 2010 pM.

With `COC(=O)N[C@H](C(=O)N1CCC[C@H]1c1ncc(-c2ccc(-c3ccc4nc(-c5cnc([C@@H]6CCCN6C(=O)[C@@H](NC(=O)OC)C(C)C)[nH]5)cnc4c3)cc2)[nH]1)C(C)C` [Example 5, Methyl {(2S)-1-[(2S)-2-{5-[4-(2-{2-[(2S)-1-{(2S)-2-[(methoxycarbonyl)amino]-3-methyl-butanoyl}pyrrolidin-2-yl]-1H-imidazol-5-yl}quinoxalin-6-yl)phenyl]-1H-imidazol-2-yl}pyrrolidin-1-yl]-3-methyl-1-oxobutan-2-yl}carbamate], the figures for the concentration for half-maximal inhibition (IC50) in the assay on 1a-H77 replicon cells (setting [1]) and in the assay on 1b (con1) replicon cells (setting [1]) were 387 pM and 8.12 pM, respectively.

Take `CC[C@H](NC(C)=O)C(=O)N1CCC[C@H]1c1ncc(-c2ccc3nc(-c4ccc(-c5c[nH]c([C@@H]6CCCN6C(=O)[C@@H](NC(=O)OC)C(C)C)n5)cc4)cnc3c2)[nH]1` [Example 39, Methyl {(2S)-1-[(2S)-2-(4-{4-[6-(2-{(2S)-1-[(2S)-2-(acetylamino)butanoyl]pyrrolidin-2-yl}-1H-imidazol-5-yl)quinoxalin-2-yl]phenyl}-1H-imidazol-2-yl)pyrrolidin-1-yl]-3-methyl-1-oxobutan-2-yl}carbamate trifluoroacetic acid salt]: the IC50 was found to be 1240 pM in the assay on 1a-H77 replicon cells (Hepatitis C virus, 48 h) and 48.1 pM in the assay on 1b (con1) replicon cells (Hepatitis C virus, 48 h).

As for `COC(=O)N[C@H](C(=O)N1CCC[C@H]1c1nc(-c2ccc(-c3cnc4cc(-c5cnc([C@@H]6CCCN6C(=O)[C@@H](Cc6ccccc6)NC(=O)OC)[nH]5)ccc4n3)cc2)c[nH]1)C(C)C` [Example 62, Methyl {(2R)-1-[(2S)-2-{5-[2-(4-{2-[(2S)-1-{(2S)-2-[(methoxycarbonyl)amino]-3-methylbutanoyl}pyrrolidin-2-yl]-1H-imidazol-4-yl}phenyl)quinoxalin-6-yl]-1H-imidazol-2-yl}pyrrolidin-1-yl]-1-oxo-3-phenylpropan-2-yl}carbamate trifluoroacetic acid salt], the IC50 in the assay on 1a-H77 replicon cells (Hepatitis C virus, 48 h) came to 2570 pM; in the assay with 1b (con1) replicon cells (Hepatitis C virus, 48 h), 44.1 pM.

For `COC(=O)N[C@@H](C)C(=O)N1CCC[C@H]1c1ncc(-c2ccc3nc(-c4ccc(-c5c[nH]c([C@@H]6CCCN6C(=O)[C@@H](NC(=O)OC)C(C)C)n5)cc4)cnc3c2)[nH]1` [Example 57, Methyl {(2S)-1-[(2S)-2-(4-{4-[6-(2-{(2S)-1-[N-(methoxycarbonyl)-L-alanyl]pyrrolidin-2-yl}-1H-imidazol-5-yl)quinoxalin-2-yl]phenyl}-1H-imidazol-2-yl)pyrrolidin-1-yl]-3-methyl-1-oxobutan-2-yl} carbamate trifluoroacetic acid salt], the IC50 in the assay with 1a-H77 replicon cells (setting [2]) turned out to be 21.8 pM; in the assay with 1b (con1) replicon cells (setting [2]) it was 21.9 pM.

For the compound `COC(=O)N[C@H](C(=O)N1CCC[C@H]1c1nc(-c2ccc(-c3cnc4cc(-c5cnc([C@@H]6CCCN6C(=O)[C@@H](C)NC(=O)OC)[nH]5)ccc4n3)cc2)c[nH]1)C(C)C` [Example 53, Methyl {(2S)-1-[(2S)-2-(4-{4-[6-(2-{(2S)-1-[N-(methoxycarbonyl)-D-alanyl]pyrrolidin-2-yl}-1H-imidazol-5-yl)quinoxalin-2-yl]phenyl}-1H-imidazol-2-yl)pyrrolidin-1-yl]-3-methyl-1-oxobutan-2-yl} carbamate trifluoroacetic acid salt], the IC50 amounted to 646 pM with 1a-H77 replicon cells (setting [2]) and 21.1 pM with 1b (con1) replicon cells (setting [2]).

With `COC(=O)N[C@H](C(=O)N1CCC[C@H]1c1nc(-c2cnc(-c3cc4ccc(-c5cnc([C@@H]6CCCN6C(=O)[C@@H](NC(=O)OC)C(C)C)[nH]5)cc4cn3)nc2)c[nH]1)C(C)C` [Example 22, Methyl {(2S)-1-[(2S)-2-{4-[2-(7-{2-[(2S)-1-{(2S)-2-[(methoxycarbonyl)amino]-3-methylbutanoyl}pyrrolidin-2-yl]-1H-imidazol-5-yl}isoquinolin-3-yl)pyrimidin-5-yl]-1H-imidazol-2-yl}pyrrolidin-1-yl]-3-methyl-1-oxobutan-2-yl}carbamate], the half-inhibitory concentration (IC50) in the assay with 1a-H77 replicon cells (setting [1]) stood at 2190 pM; with 1b (con1) replicon cells (setting [1]) it was 152 pM.

Regarding `CCOc1nc(-c2ccc(-c3cnc([C@@H]4CCCN4C(=O)[C@@H](NC(=O)OC)C(C)C)[nH]3)cc2)nc2ccc(-c3cnc([C@@H]4CCCN4C(=O)[C@@H](NC(=O)OC)C(C)C)[nH]3)cc12` [Example 16, Methyl {(2S)-1-[(2S)-2-{5-[4-(4-ethoxy-6-{2-[(2S)-1-{(2S)-2-[(methoxycarbonyl)amino]-3-methylbutanoyl}pyrrolidin-2-yl]-1H-imidazol-5-yl}quinazolin-2-yl)phenyl]-1H-imidazol-2-yl}pyrrolidin-1-yl]-3-methyl-1-oxobutan-2-yl}carbamate], the results for the IC50 in the assay on 1a-H77 replicon cells (setting [1]) and with 1b (con1) replicon cells (setting [1]) were 35.3 pM and 5.28 pM, respectively.

For `COC(=O)N[C@@H](CC(C)C)C(=O)N1CCC[C@H]1c1ncc(-c2ccc3nc(-c4ccc(-c5c[nH]c([C@@H]6CCCN6C(=O)[C@@H](NC(=O)OC)C(C)C)n5)cc4)cnc3c2)[nH]1` [Example 68, Methyl {(2S)-1-[(2S)-2-{5-[2-(4-{2-[(2S)-1-{(2S)-2-[(methoxycarobnyl)amino]-3-methylbutanoyl}pyrrolidin-2-yl]-1H-imidazol-4-yl}phenyl)quinoxalin-6-yl]-1H-imidazol-2-yl}pyrrolidin-1-yl]-4-methyl-1-oxopentan-2-yl}carbamate trifluoroacetic acid salt], the half-inhibitory concentration (IC50) stood at 23.2 pM with 1a-H77 replicon cells (setting [2]) and 8.15 pM in the assay with 1b (con1) replicon cells (setting [2]).

With `COC(=O)N[C@H](C(=O)N1CCC[C@H]1c1nc(-c2ccc(-c3cnc4cc(-c5cnc([C@@H]6CCCN6C(=O)CNC(C)=O)[nH]5)ccc4n3)cc2)c[nH]1)C(C)C` [Example 35, Methyl {(2S)-1-[(2S)-2-{4-[4-(6-{2-[(2S)-1-(N-acetylglycyl)pyrrolidin-2-yl]-1H-imidazol-5-yl}quinoxalin-2-yl)phenyl]-1H-imidazol-2-yl}pyrrolidin-1-yl]-3-methyl-1-oxobutan-2-yl}carbamate trifluoroacetic acid salt], the half-inhibitory concentration (IC50) is 2300 pM in the assay on 1a-H77 replicon cells (Hepatitis C virus, 48 h) and 254 pM with 1b (con1) replicon cells (Hepatitis C virus, 48 h).
